pEC50: −log10 of the molar value.
Legend:
Thromboxane A2 receptor [1] = biological target: T1, Thromboxane A2 receptor (Rattus norvegicus, UniProt P34978); experiment: Activity against thromboxane A2 receptor evaluated by contraction of isolated rat thoracic aorta; format: tissue-based
T1 sequence (P34978 whole entry): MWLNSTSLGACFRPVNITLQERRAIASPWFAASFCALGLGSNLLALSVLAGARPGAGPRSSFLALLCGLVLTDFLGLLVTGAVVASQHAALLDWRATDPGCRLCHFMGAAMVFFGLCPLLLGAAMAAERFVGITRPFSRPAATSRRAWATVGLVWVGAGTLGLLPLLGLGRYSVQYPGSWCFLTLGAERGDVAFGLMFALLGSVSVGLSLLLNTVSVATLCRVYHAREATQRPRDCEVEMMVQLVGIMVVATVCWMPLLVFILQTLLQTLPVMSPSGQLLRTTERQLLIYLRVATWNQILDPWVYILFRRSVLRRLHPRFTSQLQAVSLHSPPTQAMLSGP

Thromboxane A2 receptor [2] = biological target: T2, Thromboxane A2 receptor (Homo sapiens, UniProt P21731); experiment: Activity against thromboxane A2 receptor evaluated by aggregation of human platelets at 0-10 uM; Not active
T2 sequence (P21731 whole entry): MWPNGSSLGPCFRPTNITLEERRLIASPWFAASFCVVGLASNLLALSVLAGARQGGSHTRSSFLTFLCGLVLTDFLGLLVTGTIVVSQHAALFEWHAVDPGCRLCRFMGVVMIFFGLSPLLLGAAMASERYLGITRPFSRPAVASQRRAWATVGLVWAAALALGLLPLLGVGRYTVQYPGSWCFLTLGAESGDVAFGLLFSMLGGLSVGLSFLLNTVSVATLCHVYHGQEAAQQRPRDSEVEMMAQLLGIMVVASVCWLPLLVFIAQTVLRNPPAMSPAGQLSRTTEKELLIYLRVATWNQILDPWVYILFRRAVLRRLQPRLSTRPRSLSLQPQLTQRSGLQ

Compound | pEC50 (Thromboxane A2 receptor [1]) | EC50 (Thromboxane A2 receptor [2])
CCCCCC(O)/C=C/[C@@H]1[C@@H](C/C=C\CCCC(N)=O)[C@@H]2C[C@H]1OC(=O)O2 (stereo partly specified) | 7.24 | 
CCCCCC(O)/C=C/[C@@H]1[C@@H](C/C=C\CCCC(=O)NC(C)C)[C@@H]2C[C@H]1OC(=O)O2 (stereo partly specified) | 6.49 | Not Active
CCCCCC(O)/C=C/[C@@H]1[C@@H](C/C=C\CCCCO)[C@@H]2C[C@H]1OC(=O)O2 (stereo partly specified) | 9.00 | Not Active
CCCCCC(O)/C=C/[C@@H]1[C@@H](C/C=C\CCCC(=O)O)[C@@H]2C[C@H]1OC(=O)O2 (stereo partly specified) | 9.64 | 

Reference: ChEMBL document CHEMBL1149963, “Synthesis of a novel series of 3-oxo-2,4-dioxobicyclo[3.2.1]octanes: additional evidence for two thromboxane receptor subtypes” (Bioorg Med Chem Lett, 1994)
